From article PMC5500991, “Substituted arylsulphonamides as inhibitors of perforin-mediated lysis” (European Journal of Medicinal Chemistry, 2017)

Key:
[1] = Solubility of the sodium salt in water; type: physicochemical; conditions: sodium salt in water at room temperature
Method: The compound was dissolved in water until it was no longer soluble in order to achieve a supersaturated concentration. The suspensions were sonicated for 15 min. prior to centrifugation at 13,000 revolutions per minute (rpm) for 6 minutes. Supernatants were removed and then recentrifuged prior to dilution of at least two fold in water to avoid precipitation during HPLC analysis.

[2] = Toxicity to KHYG1 NK cells (Trypan blue exclusion); type: cell-based, human; conditions: human, viability of KHYG1 NK cells after 24 h, n = 3
Method: The toxicity assay was carried out in exactly the same manner as the killing assay above, but instead of adding the labelled K562 target cells, 100 μL of RPMI 0.1% BSA was added. Cells were incubated for 4 h at 37 °C and then washed ×3 in RPMI + 0.1% BSA. […] Trypan blue was added to each well. Viable (clear) cells and total (clear + blue) cells were counted, and the percentage of viable cells was calculated compared to DMSO treated cell control (% viability).

[3] = molecular target: T1, perforin delivered by KHYG1 NK cells (Homo sapiens, UniProt P14222); experiment: KHYG1 inhibitory assay: lysis of 51Cr-labelled K562 target cells by KHYG1 NK cells; type: cell-based; conditions: 51Cr-labelled K562 target cells co-incubated with KHYG1 human NK cells, vs untreated control, n = 4
T1 construct: The use of whole NK cells to deliver perforin provides a more realistic model of conditions in vivo; endogenous in cells; host or cells: KHYG1 human NK cells (effector); K562 leukemia target cells
T1 sequence (P14222 22-555): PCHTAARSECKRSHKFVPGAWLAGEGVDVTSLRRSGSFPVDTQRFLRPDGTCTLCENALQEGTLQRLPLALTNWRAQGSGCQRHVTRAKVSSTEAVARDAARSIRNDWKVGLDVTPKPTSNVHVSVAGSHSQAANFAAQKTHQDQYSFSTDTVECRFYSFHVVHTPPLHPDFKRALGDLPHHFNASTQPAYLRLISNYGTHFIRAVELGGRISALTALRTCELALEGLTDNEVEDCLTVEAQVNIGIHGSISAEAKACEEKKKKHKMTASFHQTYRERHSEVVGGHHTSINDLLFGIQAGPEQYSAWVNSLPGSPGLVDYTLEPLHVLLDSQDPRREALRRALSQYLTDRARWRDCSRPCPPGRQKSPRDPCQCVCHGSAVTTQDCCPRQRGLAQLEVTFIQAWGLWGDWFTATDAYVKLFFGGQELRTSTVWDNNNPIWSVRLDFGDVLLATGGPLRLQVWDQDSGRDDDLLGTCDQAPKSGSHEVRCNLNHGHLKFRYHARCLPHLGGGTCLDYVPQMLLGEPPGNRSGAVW
Method: The inhibitory function is then determined by identifying the number of untreated or inhibitor treated effector cells required to kill the same number of targets.

[4] = Microsome stability, mouse; type: in vitro ADME; conditions: parent (as sodium salt) remaining after 30 min, mouse microsomes
Method: (§1) Microsome stability was carried out at Cyprotex using pooled human liver microsomes (male and female), pooled rat liver microsomes (male, Sprague Dawley rats), pooled mouse liver microsomes (male CD-1 mice) which were either prepared or purchased from a reputable commercial supplier. […] The final incubation volume was 25 μL. A control incubation was included for each compound tested where 0.1 M phosphate buffer pH 7.4 was added instead of NADPH (minus NADPH). Two control compounds were included with each species. All incubations were performed singularly for each test compound. Each compound was incubated for 0, 5, 15, 30 and 45 min. The control (minus NADPH) was incubated for 45 min only. The reactions were stopped by the addition of 50 μL methanol containing internal standard at the appropriate time points. The incubation plates were centrifuged at 2,500 rpm for 20 min at 4 °C to precipitate the protein. Following precipitation, the sample supernatants were combined in cassettes of up to 4 compounds and analysed using Cyprotex generic LC-MS/MS conditions. From a plot of ln peak area ratio (compound peak area/internal standard peak area) against time, the percentage compound remaining at 30 min was calculated. Results that were > 100% of matched control were defined as 100%.

[5] = Stability in solution (water, 20 °C, 24 h); type: physicochemical; conditions: sodium salt, 24 h at 20 °C in water
Method: Test compounds were incubated (10 μM; < 2.5% DMSO in final concentration) in Milli Q water (n=3 tubes) at 20 °C for 24 h. (Eppendorf Thermomixer Comfort). Aliquots were collected (25 μL) just before the incubation (time “0 min”) and at 24 h. These samples were stored in a -80 °C freezer until the analysis by liquid chromatography with tandem mass spectrometry spectrometry (LC-MS/MS) – see next section for method development. Samples were thawed on wet ice on the day of assay. Thawed aliquots were mixed by vortex mixer, 10 μL of the sample transferred to a clean tube, 40 μL of ice cold acetonitrile added (containing internal standard compound), then centrifuged at 13,000 rpm for 5 min, 40 μL of clear supernatant transferred to an HPLC insert and mixed with 80 μL of 0.01% formic acid in water. Ten to 20 μL was injected onto the LC-MS/MS system. Results are based on the peak area ratio of drug to internal standard at time “0 h” (i.e. before the incubation and at the end i.e. “24 h”).

[6] = In vivo plasma pharmacokinetics in mice; conditions: mouse plasma, 10 mg/kg i.p. in 20% hydroxypropyl-β-cyclodextrin
Method: The in vivo PK parameters were measured for seven compounds selected on the basis of the in vitro assessment described above. Plasma pharmacokinetics were determined in male CD-1 mice for compounds 3, 10, 11, 26, 50, 58 and 59 (Table 6). Blood samples were collected at 5–8 time-points after dosing the compounds at 10 mg/kg in a solution of 20% hydroxypropyl-β-cyclodextrin by intraperitoneal (IP) injection. For analysis of the samples, chromatographic conditions were optimised by HPLC for each compound of interest and an internal standard. A liquid chromatography with tandem mass spectrometry (LC-MS/MS) method was then developed and validated for quantitation of each analyte.
PK studies were carried out in female C57BL/6J (female) mice using IP administration of test compound, dosing at 10 mg/kg in a solution of 20% hydroxypropyl-β-cyclodextrin. Mice (n=3 at each time point) were culled with excess inhalation of CO2 and blood collected by cardiac puncture at 5-8 time points after dosing in ice cold EDTA tubes. Plasma was separated by centrifuging at 6000 rpm for 5 min and stored at -80°C until analysis by LC-MS/MS. Frozen plasma was thawed on wet ice on the day of analysis. Ten μL of sample was transferred to a clean microcentrifuge tube and mixed with ice cold acetonitrile (40 μL containing internal standard) to precipitate the plasma proteins. The tubes were centrifuged at 13000 rpm for 5 min to obtain a clear supernatant which was mixed with 0.01% formic acid-water (1:2). Ten to twenty µL was injected into the LC-MS/MS to measure the analyte concentration in the sample. The samples were quantitated against a calibration curve of known analyte concentrations run in test species blank plasma (sourced from Innovative Research, USA). The concentration vs time data was then fitted into a pharmacokinetic software program (Phoenix WinNonlin v6.2) to calculate the PK parameters including T½, Cmax and AUC0-∞.

Microsome stability, rat = type: in vitro ADME; conditions: parent (as sodium salt) remaining after 30 min, rat microsomes
Method: as §1

Structure (SMILES) | Solubility [1] | solubility at 15 min [1] [µg/mL] | inhibition at 10 µM [3] [%] | Microsome Stability (%) Mouse [4] [%] | Stability in Solution (% parent remaining) [5] [%] | AUC0-∞ [6] [µM·h] | Cmax [6] [µM] | T1/2 [6] [h] | Microsome Stability (%) Rat (Microsome stability, rat) [%] | melting point [°C] | viability at 24 h, 10 µM [2] [%]
Cc1ccc(S(=O)(=O)Nc2ccccn2)cc1-c1ccc(-c2ccc3c(c2)CN(C)C3=O)s1 [Compound 16, Sodium (4-methyl-3-(5-(2-methyl-1-oxoisoindolin-5-yl)thiophen-2-yl)phenylsulfonyl)(pyridin-2-yl)amide] | – | – | 0 | – | – | – | – | – | – | – | 96.1 ± 6
CN1Cc2cc(-c3ccc(-c4cc(NS(=O)(=O)c5ccccn5)ccc4F)s3)ccc2C1=O [Compound 17, N-{4-Fluoro-3-[5-(2-methyl-1-oxo-2,3-dihydro-1H-isoindol-5-yl)-2-thienyl]phenyl}-2-pyridinesulfonamide] | – | – | 0 | – | – | – | – | – | – | – | 91.4 ± 6.5
CN1Cc2cc(-c3ccc(-c4cnc(F)c(NS(=O)(=O)c5ccccn5)c4)s3)ccc2C1=O [Compound 20, N-(2-Fluoro-5-(5-(2-methyl-1-oxoisoindolin-5-yl)thiophen-2-yl)pyridin-3-yl)pyridine-2-sulfonamide] | significantly improved | – | – | – | – | – | – | – | – | – | –
CN1Cc2cc(-c3ccc(-c4cncc(NS(=O)(=O)c5c(F)cc(F)cc5F)c4)s3)ccc2C1=O [Compound 26, 2,4,6-Trifluoro-N-(5-(5-(2-methyl-1-oxoisoindolin-5-yl)thiophen-2-yl)pyridin-3-yl)benzenesulfonamide] | highly soluble | 10700 | 81.3 ± 6.3 | 100 | 88 | 1019 | 124 | 4.5 | 83 | – | 95.1 ± 2.1
CN1Cc2cc(-c3ccc(-c4cncc(NS(=O)(=O)c5cccc(C(F)(F)F)c5)c4)s3)ccc2C1=O [Compound 45, N-(5-(5-(2-Methyl-1-oxoisoindolin-5-yl)thiophen-2-yl)pyridin-3-yl)-3-(trifluoromethyl)benzenesulfonamides] | negative impact on solubility | 574 | 88.8 ± 1.9 | 97 | – | – | – | – | 80 | – | 100
CN1Cc2cc(-c3ccc(-c4cncc(NS(=O)(=O)c5ccccc5C(F)(F)F)c4)s3)ccc2C1=O [Compound 44, N-(5-(5-(2-Methyl-1-oxoisoindolin-5-yl)thiophen-2-yl)pyridin-3-yl)-2-(trifluoromethyl)benzenesulfonamide] | negative impact on solubility | 88 | 85 ± 5.6 | 84 | 92 | – | – | – | 49 | – | 100

Further lines, with some results ahead:

Solubility [1] | solubility at 15 min [1] [µg/mL] | inhibition at 10 µM [3] [%] | Microsome Stability (%) Mouse [4] [%] | Stability in Solution (% parent remaining) [5] [%] | AUC0-∞ [6] [µM·h] | Cmax [6] [µM] | T1/2 [6] [h] | Microsome Stability (%) Rat (Microsome stability, rat) [%] | melting point [°C] | Structure (SMILES) | viability at 24 h, 10 µM [2] [%]
highly soluble | 12900 | 75 ± 7.8 | 87 | 85 | 642 | 87 | 3.3 | 64 | – | CN1Cc2cc(-c3ccc(-c4cncc(NS(=O)(=O)c5ccc(C#N)cc5)c4)s3)ccc2C1=O [Compound 50, 4-Cyano-N-(5-(5-(2-methyl-1-oxoisoindolin-5-yl)thiophen-2-yl)pyridin-3-yl)benzenesulfonamide] | 99.3 ± 0.3
– | – | 0 | – | – | – | – | – | – | – | CN1Cc2cc(-c3ccc(-c4cncc(NS(=O)(=O)c5ccc(S(C)(=O)=O)cc5)c4)s3)ccc2C1=O [Compound 57, Sodium (5-(5-(2-methyl-1-oxoisoindolin-5-yl)thiophen-2-yl)pyridin-3-yl)((4-(methylsulfonyl)phenyl)sulfonyl)amide] | 90 ± 7.8
– | 1680 | 77.5 ± 5.6 | 85 | – | 383 | 64 | 2.2 | 72 | – | CN1Cc2cc(-c3ccc(-c4cncc(NS(=O)(=O)c5ccc([N+](=O)[O-])cc5)c4)s3)ccc2C1=O [Compound 59, N-(5-(5-(2-Methyl-1-oxoisoindolin-5-yl)thiophen-2-yl)pyridin-3-yl)-4-nitrobenzenesulfonamide] | 85 ± 12
– | – | 0 | – | – | – | – | – | – | 299 to 302 | CN1Cc2cc(-c3ccc(-c4cncc(NS(=O)(=O)c5cc(C(F)(F)F)cc(C(F)(F)F)c5)c4)s3)ccc2C1=O [Compound 47, N-(5-(5-(2-Methyl-1-oxoisoindolin-5-yl)thiophen-2-yl)pyridin-3-yl)-3,5-bis(trifluoromethyl)benzenesulphonamide] | 90.2 ± 3.4
